Data published in EP0459830A1, “Pharmacologically active CNS compounds” (THE WELLCOME FOUNDATION LIMITED, priority 1990, dated 1991).

Assays:
[1] = system: release of the excitatory amino acids, glutamate and aspartate; settings: Leach et al Epilepsia 27, 490-497 1986; Miller et al 1987; cited from earlier work
[2] = system: veratrine-evoked release of glutamate from rat brain slices; assay: veratrine-evoked release of glutamate from rat brain slices; format: cell-based; settings: read-out: IC50(μM) Glutamate Release (P95 limits)
Method: (§1) Compounds of formula (Ia) were tested for their effect on veratrine-evoked release of glutamate from rat brain slices according to the protocol described in Epilepsia 27(5): 490-497, 1986. The protocol for testing for inhibition of DHFR activity was a modification of that set out in Biochemical Pharmacology Vol.20 pp 561-574, 1971.
(§2) The results are given in Table 1, the IC₅₀ being the concentration of compound to […] 50% of DHFR enzyme activity.

[3] = target: T1, Rat Liver DHFR (Rattus norvegicus, UniProt Q920D2); assay: inhibition of DHFR activity; format: biochemical; settings: rat liver DHFR enzyme activity; read-out: IC50(μM) Rat Liver DHFR (P95 limits)
T1 construct: from tissue; host or cells: rat liver
T1 sequence (Q920D2 1-187): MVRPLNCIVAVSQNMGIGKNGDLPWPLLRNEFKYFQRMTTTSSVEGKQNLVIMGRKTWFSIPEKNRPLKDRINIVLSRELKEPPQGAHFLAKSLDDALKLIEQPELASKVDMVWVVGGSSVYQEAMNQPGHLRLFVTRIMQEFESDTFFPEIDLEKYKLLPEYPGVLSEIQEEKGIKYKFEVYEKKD
Method: as §1, §2

Compound | inhibition of release of glutamate and aspartate [1] | IC50 [2] | IC50 [3]
Nc1nnc(-c2cccc(Cl)c2Cl)c(N)n1 [lamotrigine, 3,5-diamino-6-(2,3-dichlorophenyl)-1,2,4-triazine] | inhibit the release of the excitatory amino acids, glutamate and aspartate | – | –
Cc1c(N)nc(N)nc1-c1ccc(Cl)cc1 [*, 2,4-Diamino-5-methyl-6-(4-chlorophenyl)pyrimidine] | – | > 10 µM | > 55 µM
Nc1cc(-c2ccc(Cl)cc2Cl)nc(N)n1 [Example 3, 2,4-Diamino-6-(2,4-Dichlorophenyl)pyrimidine] | – | > 10 µM | < 100 µM
Nc1cc(-c2cccc(Cl)c2Cl)nc(N)n1 [Example 1, 2,4-Diamino-6-(2,3-dichlorophenyl)pyrimidine] | – | 10 µM | < 100 µM
Nc1cc(-c2cccc3ccccc23)nc(N)n1 [Example 4, 2,4-Diamino-6-(1-naphthyl)pyrimidine] | – | > 10 µM | 100 µM
Nc1cc(-c2ccccc2Cl)nc(N)n1 [Example 2, 2,4-Diamino-6-(2-chlorophenyl)pyrimidine] | – | 10 µM | > 100 µM
